Values quoted from earlier work in patent US20060165808A1, “Microcapsules for the delayed, controlled release of perindopril” (priority 2002, published 2006).

- solubility in aqueous media: very high degree of solubility
Structure (SMILES): CCC[C@H](N[C@@H](C)C(=O)N1[C@H](C(=O)O)C[C@@H]2CCCC[C@@H]21)C(=O)OCC [perindopril]
